How the values were obtained:
Conditions in all cases: 72 h
HepG2 [1] = assay: drug sensitivity score (DSS) for viability; higher = more toxic; extreme values may be limits of the assay
Caco-2 [2] = assay: as above
Calu-3 [3] = assay: as above
Vero E6 [4] = assay: as above
U2OS [5] = assay: as above
HepG2 [6] = assay: relative viability EC50 (midpoint between 100% and the lowest measured viability); higher = less toxic
Caco-2 [7] = assay: as above
Calu-3 [8] = assay: as above
Vero E6 [9] = assay: as above
U2OS [10] = assay: as above
HepG2 [11] = assay: cell viability relative to DMSO; higher = less toxic
Caco-2 [12] = assay: as above
Calu-3 [13] = assay: as above
Vero E6 [14] = assay: as above
U2OS [15] = assay: as above

Compound | drug sensitivity score (HepG2 [1]) | drug sensitivity score (Caco-2 [2]) | drug sensitivity score (Calu-3 [3]) | drug sensitivity score (Vero E6 [4]) | drug sensitivity score (U2OS [5]) | relative viability EC50 (HepG2 [6]) [µM] | relative viability EC50 (Caco-2 [7]) [µM] | relative viability EC50 (Calu-3 [8]) [µM] | relative viability EC50 (Vero E6 [9]) [µM] | relative viability EC50 (U2OS [10]) [µM] | cell viability (HepG2 [11]; 1 nM) [%] | cell viability (HepG2 [11]; 10 nM) [%] | cell viability (HepG2 [11]; 100 nM) [%] | cell viability (HepG2 [11]; 1000 nM) [%] | cell viability (HepG2 [11]; 10000 nM) [%] | cell viability (Caco-2 [12]; 1 nM) [%] | cell viability (Caco-2 [12]; 10 nM) [%] | cell viability (Caco-2 [12]; 100 nM) [%] | cell viability (Caco-2 [12]; 1000 nM) [%] | cell viability (Caco-2 [12]; 10000 nM) [%] | cell viability (Calu-3 [13]; 1 nM) [%] | cell viability (Calu-3 [13]; 10 nM) [%] | cell viability (Calu-3 [13]; 100 nM) [%] | cell viability (Calu-3 [13]; 1000 nM) [%] | cell viability (Calu-3 [13]; 10000 nM) [%] | cell viability (Vero E6 [14]; 1 nM) [%] | cell viability (Vero E6 [14]; 10 nM) [%] | cell viability (Vero E6 [14]; 100 nM) [%] | cell viability (Vero E6 [14]; 1000 nM) [%] | cell viability (Vero E6 [14]; 10000 nM) [%] | cell viability (U2OS [15]; 1 nM) [%] | cell viability (U2OS [15]; 10 nM) [%] | cell viability (U2OS [15]; 100 nM) [%] | cell viability (U2OS [15]; 1000 nM) [%] | cell viability (U2OS [15]; 10000 nM) [%]
C[N+](C)(C)CC[N+]1(C)Cc2c(Cl)c(Cl)c(Cl)c(Cl)c2C1 [chlorisondamine-diiodide] | 0 | 0 | 0 | 0 | 0 | > 10 | > 10 | > 10 | > 10 | > 10 | 94 | 110 | 103 | 99.9 | 101 | 92.1 | 93 | 99.9 | 103 | 88.8 | 93.2 | 102 | 102 | 89.8 | 100 | 100 | 95.5 | 95.7 | 97.4 | 94 | 97.2 | 96.2 | 96.1 | 97.5 | 92.5
COc1ccc(CC2NCCc3cc(OC)c(OC)cc32)cc1OC (stereo not given) [tetrahydropapaverine] | 0 | 0 | 0 | 0 | 0 | > 10 | > 10 | > 10 | > 10 | > 10 | 99.1 | 99.9 | 91.5 | 98.6 | 103 | 99.8 | 99 | 99.5 | 102 | 94.4 | 95.9 | 86.9 | 99.7 | 83.3 | 98.7 | 94.3 | 99.8 | 95.3 | 98.6 | 104 | 99.5 | 93.2 | 103 | 90.9 | 96.9
CN1CC[C@@H](c2c(O)cc(O)c3c(=O)cc(-c4ccccc4Cl)oc23)[C@@H]1CO [P276-00] | 16.7 | 9.4 | 8.5 | 10.1 | 11.5 | 0.324 | 0.881 | 0.604 | 1.21 | 0.878 | 114 | 94.7 | 101 | 6.6 | 7.6 | 101 | 108 | 95.1 | 57.6 | 21.8 | 108 | 103 | 94.5 | 59 | 38.2 | 103 | 95.8 | 102 | 63.9 | 6.1 | 97.6 | 100 | 90.3 | 49.3 | 3
CCCCOc1ccc(C(=O)Nc2ccc(F)cc2F)cc1 | 0 | 0 | 0 | 0 | 0 | > 10 | > 10 | > 10 | > 10 | > 10 | 100 | 98.2 | 101 | 90.7 | 97.6 | 105 | 106 | 104 | 92.6 | 96.5 | 107 | 97.1 | 109 | 99.2 | 95.5 | 99.2 | 102 | 98.4 | 99.7 | 101 | 98.1 | 98.2 | 101 | 96.6 | 99.5
Cc1cccc(/C=C/c2ccccc2)n1 [SIB-1893] | 0 | 0 | 0 | 0 | 0 | > 10 | > 10 | > 10 | > 10 | > 10 | 108 | 96.1 | 107 | 102 | 94.2 | 88.7 | 101 | 90.7 | 100 | 96.9 | 100 | 102 | 99.2 | 98.1 | 102 | 94 | 104 | 102 | 103 | 100 | 99.8 | 106 | 96.3 | 103 | 97.4
CC1(C)O[C@@H]2C[C@H]3[C@@H]4C[C@H](F)C5=CC(=O)C=C[C@]5(C)[C@H]4[C@@H](O)C[C@]3(C)[C@]2(C(=O)CO)O1 [flunisolide] | 0 | 1 | 0.2 | 0 | 0 | > 10 | > 10 | > 10 | > 10 | > 10 | 105 | 104 | 97.3 | 97.3 | 99.2 | 105 | 103 | 91.5 | 87.7 | 98.5 | 98.5 | 96.1 | 101 | 94.5 | 88.5 | 96.6 | 97.6 | 95.3 | 94.2 | 102 | 102 | 93.9 | 91.4 | 93.8 | 94.7
CCCC(=O)Nc1ncnc2c1ncn2[C@@H]1O[C@@H]2COP(=O)(O)O[C@H]2[C@H]1OC(=O)CCC [bucladesine] | 0 | 0 | 0 | 0 | 0 | > 10 | > 10 | > 10 | > 10 | > 10 | 101 | 101 | 93.9 | 99 | 96 | 110 | 101 | 107 | 93.3 | 91.9 | 100 | 92.9 | 92.9 | 94.3 | 108 | 98.5 | 104 | 97.8 | 104 | 95.2 | 105 | 94.8 | 103 | 97.2 | 100
CCCC[N+]1(C)[C@@H]2C[C@@H](OC(=O)[C@H](CO)c3ccccc3)C[C@H]1[C@@H]1O[C@@H]12 (stereo not given in full) [butylscopolamine-bromide] | 0 | 0 | 0 | 0 | 0 | > 10 | > 10 | > 10 | > 10 | > 10 | 102 | 106 | 92.9 | 102 | 115 | 92.8 | 98.3 | 104 | 94.7 | 98.2 | 110 | 83.9 | 99.5 | 90.9 | 106 | 97.4 | 95.9 | 96.5 | 95.6 | 108 | 99.1 | 94.7 | 101 | 96.3 | 99.7
COC(=O)C1=C(C#N)NC(C)=C(C(=O)OC(C)C)C1c1cccc([N+](=O)[O-])c1 (stereo not given) [nilvadipine] | 0 | 0 | 0 | 0 | 0 | > 10 | > 10 | > 10 | > 10 | > 10 | 108 | 98.6 | 109 | 96.1 | 95 | 96.1 | 84.7 | 92.7 | 94.1 | 96 | 90.9 | 101 | 90.8 | 97.5 | 120 | 95.9 | 93.6 | 100 | 97.9 | 109 | 96.6 | 98.4 | 97 | 96.7 | 104
N#Cc1ccc2[nH]c(O)c(-c3ccc(CN4CCOCC4)cn3)c2c1 [AZD1080] | 0.2 | 0.1 | 0 | 0.2 | 0 | > 10 | > 10 | > 10 | > 10 | > 10 | 107 | 99.3 | 102 | 112 | 82.7 | 96.3 | 100 | 106 | 113 | 84.6 | 105 | 107 | 100 | 112 | 91.2 | 99.1 | 97.6 | 98.2 | 108 | 82 | 95.3 | 105 | 95.8 | 105 | 99.5
CC(N)Cc1ccc(O)cc1 (stereo not given) [hydroxyamphetamine] | 0 | 0 | 0 | 0 | 0 | > 10 | > 10 | > 10 | > 10 | > 10 | 102 | 103 | 93.4 | 93.7 | 96 | 107 | 92.8 | 94.2 | 98.7 | 99.5 | 92.5 | 94.4 | 98.7 | 100 | 107 | 99.9 | 102 | 99.4 | 95.1 | 104 | 98.6 | 101 | 96.2 | 102 | 94.5

— the supplement of paper PMC13380429
